ChEMBL document CHEMBL1136411, “Imidazo[4,5-b]pyridines as corticotropin releasing factor receptor ligands” (Bioorg Med Chem Lett, 2003)

Legend:
[1] = biological target: T1, Corticotropin releasing factor receptor (Rattus norvegicus, UniProt P47866+P35353); assay: In vitro binding affinity to the CRF receptor in rat cortical homogenates
Canis familiaris = assay: Area under the curve at a dose of 1 mg/kg; assay type: ADME, organism-based, Canis lupus familiaris; parameters: dose 1 mg/kg; conditions: dog, in vivo
[2] = Half life was determined; assay type: ADME, organism-based, Canis lupus familiaris; conditions: dog, in vivo
[3] = Maximal plasma concentration at a dose of 1 mg/kg; assay type: ADME, organism-based, Canis lupus familiaris; parameters: dose 1 mg/kg; conditions: dog
[4] = biological target: T1, Corticotropin releasing factor receptor; assay: In vitro binding affinity against Corticotropin releasing factor receptor in rat cortical homogenates
Rattus norvegicus = assay: Anxiolytic efficacy in rat after peroral administration; assay type: functional; conditions: po

| SMILES | Ki [1] [nM] | further results |
| --- | --- | --- |
| CCc1nc2c(-c3ccc(C(F)(F)F)cc3Cl)ncnc2n1C(C1CC1)C1CC1 | 1.8 | – |
| CCc1nc2c(-c3ccc(OC(F)F)cc3Cl)ccnc2n1C(C)C1CCC1 (stereo unspecified) | – | AUC (Canis familiaris): 0.795 µM·h; half-life [2]: 10 h; Cmax [3]: 185 nM; Ki [4]: 0.7 nM; ED50 (Rattus norvegicus): < 3 mg/kg |
| CCCC(C)n1c(CC)nc2c(-c3ccc(C(C)=O)cc3Cl)ccnc21 (stereo unspecified) | 1 | – |
| CCc1nc2c(-c3ccc(Cl)cc3Cl)ccnc2n1[C@H](CC)C1CC1 | 0.2 | – |
| CCc1nc2c(-c3ccc(Cl)cc3Cl)ccnc2n1C(C)CC (stereo unspecified) | 1.3 | – |
| CCCC(C)n1c(CC)nc2c(-c3ccc(C(C)OC)cc3Cl)ccnc21 (stereo unspecified) | 3.5 | – |
| CCC(CCOC)n1c(OC)nc2c(-c3ccc(OC(F)(F)F)cc3Cl)ccnc21 (stereo unspecified) | 1.9 | – |
| CCc1nc2c(-c3ccc(Cl)cc3Cl)ccnc2n1C(CCOC)C1CC1 (stereo unspecified) | 1.5 | – |
| CCCC(C)n1c(CC)nc2c(-c3ccc(C(F)(F)F)cc3Cl)ccnc21 (stereo unspecified) | 1.1 | AUC (Canis familiaris): 0.604 µM·h; half-life [2]: 4.9 h; Cmax [3]: 159 nM; Ki [4]: 1.1 nM; ED50 (Rattus norvegicus): 3 mg/kg |
| CCCC(C)n1c(CC)nc2c(-c3ccc(OC)cc3C(F)(F)F)ccnc21 (stereo unspecified) | 0.74 | AUC (Canis familiaris): 0.182 µM·h; half-life [2]: 5.9 h; Cmax [3]: 62 nM; Ki [4]: 0.7 nM; ED50 (Rattus norvegicus): 3 mg/kg |
| CCCC(C)n1c(CC)nc2c(-c3ccc(/C(C)=N\OC)cc3Cl)ccnc21 (stereo unspecified) | 2.3 | – |
| CCCC(C)n1c(CC)nc2c(-c3ccc(Cl)cc3C(C)=O)ccnc21 (stereo unspecified) | 95.6 | – |
| CCCC(C)n1c(CC)nc2c(-c3cc(F)c(F)cc3Cl)ccnc21 (stereo unspecified) | 2.4 | – |
| CCCC(C)n1c(CC)nc2c(-c3cc(C)c(OC)cc3C)ccnc21 (stereo unspecified) | 0.6 | – |
| CCC(CCOC)n1c(COC)nc2c(-c3ccc(C(F)(F)F)cc3Cl)ccnc21 (stereo unspecified) | 82.7 | – |
| CCCC(C)n1c(CC)nc2c(-c3ccc(SC)cc3C(F)(F)F)ccnc21 (stereo unspecified) | 1.4 | – |
| CCCC(C)n1c(CC)nc2c(-c3ccc(C(C)O)cc3Cl)ccnc21 (stereo unspecified) | 5.1 | – |
| CCC(CCOC)n1c(C2CC2)nc2c(-c3ccc(C(F)(F)F)cc3Cl)ccnc21 (stereo unspecified) | 20.8 | – |
| CCc1nc2c(-c3ccc(Cl)cc3Cl)ccnc2n1C(CC)CC | 1 | – |
| CCc1nc2c(-c3ccc(Cl)cc3Cl)ccnc2n1[C@H](C)C1CC1 | 0.6 | – |
| CCc1nc2c(-c3ccc(C(F)(F)F)cc3Cl)ccnc2n1C(CC)COC (stereo unspecified) | 4.7 | – |
| CCc1nc2c(-c3ccc(Cl)cc3Cl)ccnc2n1[C@@H](CC)C1CC1 | 0.4 | – |
| CCc1nc2c(-c3ccc(Cl)cc3Cl)ccnc2n1C(C)C1CCC1 (stereo unspecified) | 1 | – |
| CCCC(C)n1c(CC)nc2c(-c3ccc(S(C)(=O)=O)cc3C(F)(F)F)ccnc21 (stereo unspecified) | 6.8 | – |
| CCc1nc2c(-c3ccc(Cl)cc3Cl)ccnc2n1C(CCOC)C1CCC1 (stereo unspecified) | 2.4 | – |
| CCCC(C)n1c(C(F)F)nc2c(-c3ccc(Cl)cc3Cl)ccnc21 (stereo unspecified) | 15.8 | – |
| CCCC(C)n1c(CC)nc2c(-c3ccc(OC)cc3C)ccnc21 (stereo unspecified) | 0.8 | – |
